These results are taken from patent US10202376B2, “Heterocyclic compound” (Takeda Pharmaceutical Company Limited, priority 2014, dated 2019).

Molecules are shown by their SMILES.

T2 sequence (Q13224 27-1484, other chains not shown): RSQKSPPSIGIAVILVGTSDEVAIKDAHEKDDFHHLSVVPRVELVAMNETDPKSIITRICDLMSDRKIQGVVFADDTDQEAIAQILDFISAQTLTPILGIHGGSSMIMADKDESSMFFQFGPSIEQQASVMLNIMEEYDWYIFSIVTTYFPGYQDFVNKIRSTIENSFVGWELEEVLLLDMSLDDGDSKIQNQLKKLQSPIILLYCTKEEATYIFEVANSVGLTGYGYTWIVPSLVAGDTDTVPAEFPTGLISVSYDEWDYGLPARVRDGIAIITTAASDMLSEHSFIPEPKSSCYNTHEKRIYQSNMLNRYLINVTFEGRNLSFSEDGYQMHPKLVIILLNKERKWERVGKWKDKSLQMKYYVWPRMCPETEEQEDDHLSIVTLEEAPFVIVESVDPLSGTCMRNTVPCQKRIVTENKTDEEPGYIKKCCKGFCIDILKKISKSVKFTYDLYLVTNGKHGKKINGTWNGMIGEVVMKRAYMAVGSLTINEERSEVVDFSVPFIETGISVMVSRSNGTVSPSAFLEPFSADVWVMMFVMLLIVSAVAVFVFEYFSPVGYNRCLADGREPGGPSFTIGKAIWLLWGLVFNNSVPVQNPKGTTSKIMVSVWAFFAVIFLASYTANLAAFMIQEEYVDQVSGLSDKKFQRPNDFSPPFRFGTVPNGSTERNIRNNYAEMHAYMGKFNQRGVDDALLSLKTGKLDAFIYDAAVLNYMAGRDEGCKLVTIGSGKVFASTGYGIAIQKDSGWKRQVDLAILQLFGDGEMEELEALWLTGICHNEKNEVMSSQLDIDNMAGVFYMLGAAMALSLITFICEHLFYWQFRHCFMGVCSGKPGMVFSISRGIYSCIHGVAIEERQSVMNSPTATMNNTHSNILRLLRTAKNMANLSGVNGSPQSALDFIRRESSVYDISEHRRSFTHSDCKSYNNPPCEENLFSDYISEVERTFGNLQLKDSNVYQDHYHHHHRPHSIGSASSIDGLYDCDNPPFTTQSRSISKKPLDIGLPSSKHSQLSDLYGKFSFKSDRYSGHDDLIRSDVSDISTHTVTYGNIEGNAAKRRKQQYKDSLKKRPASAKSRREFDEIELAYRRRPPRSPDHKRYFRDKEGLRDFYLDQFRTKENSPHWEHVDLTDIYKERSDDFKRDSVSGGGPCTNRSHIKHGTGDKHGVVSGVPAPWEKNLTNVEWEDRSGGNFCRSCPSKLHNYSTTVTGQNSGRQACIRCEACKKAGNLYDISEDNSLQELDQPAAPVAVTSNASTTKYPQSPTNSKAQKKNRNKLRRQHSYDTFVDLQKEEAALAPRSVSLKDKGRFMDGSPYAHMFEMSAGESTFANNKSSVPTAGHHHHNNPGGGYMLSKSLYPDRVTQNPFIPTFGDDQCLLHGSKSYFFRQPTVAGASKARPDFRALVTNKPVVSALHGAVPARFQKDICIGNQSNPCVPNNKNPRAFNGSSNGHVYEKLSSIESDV

The target in the first experiment is T1, Human GRIN1 and human GRIN2B expressing HEK293 cells (Homo sapiens, UniProt Q13224).
T1 construct: host or cells: HEK293
T1 sequence (Q13224 27-1484, other chains not shown): as above
Kind of experiment: NR2B Ca2+ flux assay. Type of experiment: cell-based. Particulars: 10 μM test compound, glutamic acid/glycine stimulated Fluo-4 fluorescence, FLIPR, read-out: inhibitory rate (@10 μM). The protocol: Experimental Example 1 NR2B Ca^2+ Flux Assay
Human GRIN1 and human GRIN2B expressing HEK293 cells were purchased from ChanTest. The cells were cultured in a DMEM/F-12 (COSMO BIO, 10-092-CM) medium added with 10% FBS (fetal bovine serum, AusGene), 100 units/mL penicillin, 100 μg/mL streptomycin, 500 μg/mL neomycin, 100 μg/mL Zeocin, 5 μg/mL Blasticidin at 37° C., 5% CO2. The cells were detached from flask with trypsin the day before the assay, suspended in a seeding medium (DMEM (Invitrogen, 31053) added with 10% FBS, 100 units/mL penicillin, 100 μg/mL streptomycin) at 8×10^5 cells/mL, seeded by 25 μL per well in a 384-well plate (Falcon, 356663) at 20000 cells/well, and cultured overnight in an incubator. On the day of the assay, tetracycline (Wako Pure Chemical Industries, Ltd., 209-16561) was diluted with the seeding medium at 2 μg/mL, added at […] to the plate seeded with the cells, and cultured for 2 hr in an incubator. Thereafter, the medium was removed, and the cells were washed with 50 μL/well assay buffer (137 mM NaCl, 4 mM KCl, 1.8 mM CaCl2, 10 mM HEPES (pH 7.2), 10 mM Glucose, 0.1% BSA). Then, a loading buffer (assay buffer added with 2.5 uM Fluo-4AM, 2 mM Amaranth, 1 mM Tartrazine) was added at 25 μL/well, and loading was performed in the incubator for 30 min, and at room temperature for 15 min. A test compound (25 μL) was added, and the cells were stood for 15 min at room temperature. Using FLIPR (Molecular Devices), 25 μL of an assay buffer containing […], 30 μM glycine was added, and the fluorescence signal was measured every 3 seconds for 5 min. The inhibitory activity was calculated as a relative activity value that inhibits 100% of the cumulative value of the fluorescence value of a well added with a buffer free of glutamic acid, glycine, relative to the cumulative value of the fluorescence value of each well.
On the technique in general: A change in cytosolic calcium serves as a functional read-out for many receptors and channels.
On to `CN(C(=O)Cc1cccc2nccn12)c1ccc(C(F)(F)F)cc1` [Example 51, 2-(imidazo[1,2-a]pyridin-5-yl)-N-methyl-N-(4-(trifluoromethyl)phenyl)-acetamide], for which the inhibition at 10 µM is 56%. On the same count and under the same terms, to `CCN(C(=O)Cc1cccc2nccn12)c1ccc(OC(F)(F)F)cc1` [Example 59, N-ethyl-2-(imidazo[1,2-a]pyridin-5-yl)-N-(4-(trifluoromethoxy)-phenyl)acetamide] belongs 57%. On the same count and under the same terms, to `O=C(Cc1cccc2nccn12)Nc1ccc(S(F)(F)(F)(F)F)cc1` [Example 62, 2-(imidazo[1,2-a]pyridin-5-yl)-N-(4-(pentafluoro-λ^6-sulfanyl)phenyl)-acetamide] belongs 82%; to `O=C(Cc1cccc2nccn12)Nc1ccc(OC(F)(F)F)nc1` [Example 63, 2-(imidazo[1,2-a]pyridin-5-yl)-N-(6-(trifluoromethoxy)-pyridin-3-yl)acetamide], 85%; to `CC(C)(C)c1ccc(NC(=O)Cc2cccc3nccn23)cc1` [Example 64, N-(4-tert-butylphenyl)-2-(imidazo[1,2-a]pyridin-5-yl)acetamide], 84%.

Regarding `O=C(Cc1cccc2nccn12)Nc1cc2ccccc2s1` [Example 65, N-(1-benzothiophen-2-yl)-2-(imidazo[1,2-a]pyridin-5-yl)acetamide], the inhibition at 10 µM came out at 83%. Still for that read-out and setting: then `CC(C)c1ccc(NC(=O)Cc2cccc3nccn23)cc1` [Example 66, 2-(imidazo[1,2-a]pyridin-5-yl)-N-(4-isopropylphenyl)acetamide], with 92%. Still for that read-out and setting: then `O=C(Cc1cccc2nccn12)Nc1ccc2c(c1)CCO2` [Example 67, N-(2,3-dihydro-1-benzofuran-5-yl)-2-(imidazo[1,2-a]pyridin-5-yl)acetamide], with 78%; and `O=C(Cc1cccc2nccn12)Nc1ccc(C(F)F)cc1` [Example 69, N-(4-(difluoromethyl)phenyl)-2-(imidazo[1,2-a]pyridin-5-yl)acetamide], with 87%. Consider `Cc1cc(CC(=O)Nc2ccc(C(F)(F)F)cc2)n2ccnc2c1` [Example 71, 2-(7-methylimidazo(1,2-a]pyridin-5-yl)-N-(4-(trifluoromethyl)phenyl)-acetamide], for which the inhibition at 10 µM is 51%. In the case of `O=C(Cc1c(F)ccc2nccn12)Nc1ccc(C(F)(F)F)cc1` [Example 73, 2-(6-fluoroimidazo[1,2-a]pyridin-5-yl)-N-(4-(trifluoromethyl)phenyl)-acetamide], the inhibition at 10 µM stood at 73%.

Regarding `O=C(Cc1cccc2nccn12)Nc1ccc(OC2CCC2)cc1` [Example 75, N-(4-(cyclobutyloxy)phenyl)-2-(imidazo[1,2-a]pyridin-5-yl)acetamide], the inhibition at 10 µM was 68%.

Take `CCc1ccc2nccn2c1CC(=O)Nc1ccc(OC(F)(F)F)cc1` [Example 78, 2-(6-ethylimidazo[1,2-a]pyridin-5-yl)-N-(4-(trifluoromethoxy)phenyl)acetamide]: the inhibition at 10 µM came out at 97%.

On to `Cc1ccc2nccn2c1CC(=O)Nc1ccc(OC(F)(F)F)cc1` [Example 79, 2-(6-methylimidazo[1,2-a]pyridin-5-yl)-N-(4-(trifluoromethoxy)phenyl)acetamide], for which the inhibition at 10 µM came out at 95%. For `COc1ccc2nccn2c1CC(=O)Nc1ccc(OC(F)(F)F)cc1` [Example 80, 2-(6-methoxyimidazo[1,2-a]pyridin-5-yl)-N-(4-(trifluoromethoxy)phenyl)acetamide], the inhibition at 10 µM turned out to be 94%.

Regarding `CCc1ccc2nccn2c1CC(=O)Nc1ccc(C(F)(F)F)cc1` [Example 81, 2-(6-ethylimidazo[1,2-a]pyridin-5-yl)-N-(4-(trifluoromethyl)phenyl)-acetamide], the inhibition at 10 µM came to 95%. Take `O=C(Cc1cccc2nccn12)Nc1ccc(I)c(F)c1` [Example 82, N-(3-fluoro-4-iodophenyl)-2-(imidazo[1,2-a]pyridin-5-yl)acetamide]: the inhibition at 10 µM came out at 94%. Same read-out and setting: to `O=C(Cc1cccc2nccn12)Nc1ccc(Br)c(F)c1` [Example 83, N-(4-bromo-3-fluorophenyl)-2-(imidazo[1,2-a]pyridin-5-yl)acetamide] belongs 93%.

In the case of `CC(C(=O)Nc1ccc(OC(F)(F)F)cc1)c1cccc2nccn12` (stereo not drawn) [Example 84, 2-(imidazo[1,2-a]pyridin-5-yl)-N-(4-(trifluoromethoxy)-phenyl)propanamide], the inhibition at 10 µM came to 94%. Regarding `Cc1cn2c(CC(=O)Nc3ccc(OC(F)(F)F)cc3)cccc2n1` [Example 85, 2-(2-methylimidazo[1,2-a]pyridin-5-yl)-N-(4-(trifluoromethoxy)-phenyl)acetamide], the inhibition at 10 µM is 91%.

`O=C(Cc1cc(F)cc2nccn12)Nc1ccc(OC(F)(F)F)cc1` [Example 86, 2-(7-fluoroimidazo[1,2-a]pyridin-5-yl)-N-(4-(trifluoromethoxy)-phenyl)acetamide]: the inhibition at 10 µM turned out to be 93%. `Cc1ccc2nccn2c1CC(=O)Nc1ccc(C(F)(F)F)cc1` [Example 87, 2-(6-methylimidazo[1,2-a]pyridin-5-yl)-N-(4-(trifluoromethyl)phenyl)-acetamide]: the inhibition at 10 µM is 93%. Still for that read-out and setting: then `O=C(Cc1cccc2nccn12)Nc1ccc(Br)cc1` [Example 88, N-(4-bromophenyl)-2-(imidazo[1,2-a]pyridin-5-yl)acetamide], with 91%; and `COc1ccc2nccn2c1CC(=O)Nc1ccc(C(F)(F)F)cc1` [Example 89, 2-(6-methoxyimidazo[1,2-a]pyridin-5-yl)-N-(4-(trifluoromethyl)phenyl)-acetamide], with 92%; and `O=C(Cc1cc(F)cc2nccn12)Nc1ccc(C(F)(F)F)cc1` [Example 90, 2-(7-fluoroimidazo[1,2-a]pyridin-5-yl)-N-(4-(trifluoromethyl)phenyl)-acetamide], with 88%. For the compound `O=C(Cc1c(Cl)ccc2nccn12)Nc1ccc(OC(F)(F)F)cc1` [Example 91, 2-(6-chloroimidazo[1,2-a]pyridin-5-yl)-N-(4-(trifluoromethoxy)-phenyl)acetamide], the inhibition at 10 µM was found to be 91%. Turning to `O=C(Cc1cccc2nccn12)Nc1ccc(OC(F)(F)F)cn1` [Example 92, 2-(imidazo[1,2-a]pyridin-5-yl)-N-(5-(trifluoromethoxy)-pyridin-2-yl)acetamide], the inhibition at 10 µM turned out to be 87%. The same measure, in the same setting: to `CC(C(=O)Nc1ccc(C(F)(F)F)cc1)c1cccc2nccn12` (stereo not drawn) [Example 93, 2-(imidazo[1,2-a]pyridin-5-yl)-N-(4-(trifluoromethyl)phenyl)-propanamide] belongs 89%.

Consider `O=C(Cc1ccc(F)c2nccn12)Nc1ccc(OC(F)(F)F)cc1` [Example 94, 2-(8-fluoroimidazo[1,2-a]pyridin-5-yl)-N-(4-(trifluoromethoxy)-phenyl)acetamide], for which the inhibition at 10 µM is 85%. Same read-out and setting: to `CCc1ccc(NC(=O)Cc2cccc3nccn23)nc1` [Example 95, N-(5-ethylpyridin-2-yl)-2-(imidazo[1,2-a]pyridin-5-yl)acetamide] belongs 76%.

Another experiment addresses T2, NMDA receptor containing the NR2B subunit (Homo sapiens, UniProt Q05586+Q13224).
Assay: not given
Particulars: in vivo; cited from earlier work.
`CC(C(O)c1ccc(O)cc1)N1CCC(Cc2ccccc2)CC1` (stereo not drawn) [Ifenprodil]: the pain sense threshold entry is “pain sense threshold increases”.

In a further experiment the target is NMDA receptor containing the NR2B subunit (Rattus norvegicus, UniProt P35439+Q00960).
Sequence of NMDA receptor containing the NR2B subunit (Rattus norvegicus, UniProt P35439+Q00960) (Q00960 27-1482, other chains not shown): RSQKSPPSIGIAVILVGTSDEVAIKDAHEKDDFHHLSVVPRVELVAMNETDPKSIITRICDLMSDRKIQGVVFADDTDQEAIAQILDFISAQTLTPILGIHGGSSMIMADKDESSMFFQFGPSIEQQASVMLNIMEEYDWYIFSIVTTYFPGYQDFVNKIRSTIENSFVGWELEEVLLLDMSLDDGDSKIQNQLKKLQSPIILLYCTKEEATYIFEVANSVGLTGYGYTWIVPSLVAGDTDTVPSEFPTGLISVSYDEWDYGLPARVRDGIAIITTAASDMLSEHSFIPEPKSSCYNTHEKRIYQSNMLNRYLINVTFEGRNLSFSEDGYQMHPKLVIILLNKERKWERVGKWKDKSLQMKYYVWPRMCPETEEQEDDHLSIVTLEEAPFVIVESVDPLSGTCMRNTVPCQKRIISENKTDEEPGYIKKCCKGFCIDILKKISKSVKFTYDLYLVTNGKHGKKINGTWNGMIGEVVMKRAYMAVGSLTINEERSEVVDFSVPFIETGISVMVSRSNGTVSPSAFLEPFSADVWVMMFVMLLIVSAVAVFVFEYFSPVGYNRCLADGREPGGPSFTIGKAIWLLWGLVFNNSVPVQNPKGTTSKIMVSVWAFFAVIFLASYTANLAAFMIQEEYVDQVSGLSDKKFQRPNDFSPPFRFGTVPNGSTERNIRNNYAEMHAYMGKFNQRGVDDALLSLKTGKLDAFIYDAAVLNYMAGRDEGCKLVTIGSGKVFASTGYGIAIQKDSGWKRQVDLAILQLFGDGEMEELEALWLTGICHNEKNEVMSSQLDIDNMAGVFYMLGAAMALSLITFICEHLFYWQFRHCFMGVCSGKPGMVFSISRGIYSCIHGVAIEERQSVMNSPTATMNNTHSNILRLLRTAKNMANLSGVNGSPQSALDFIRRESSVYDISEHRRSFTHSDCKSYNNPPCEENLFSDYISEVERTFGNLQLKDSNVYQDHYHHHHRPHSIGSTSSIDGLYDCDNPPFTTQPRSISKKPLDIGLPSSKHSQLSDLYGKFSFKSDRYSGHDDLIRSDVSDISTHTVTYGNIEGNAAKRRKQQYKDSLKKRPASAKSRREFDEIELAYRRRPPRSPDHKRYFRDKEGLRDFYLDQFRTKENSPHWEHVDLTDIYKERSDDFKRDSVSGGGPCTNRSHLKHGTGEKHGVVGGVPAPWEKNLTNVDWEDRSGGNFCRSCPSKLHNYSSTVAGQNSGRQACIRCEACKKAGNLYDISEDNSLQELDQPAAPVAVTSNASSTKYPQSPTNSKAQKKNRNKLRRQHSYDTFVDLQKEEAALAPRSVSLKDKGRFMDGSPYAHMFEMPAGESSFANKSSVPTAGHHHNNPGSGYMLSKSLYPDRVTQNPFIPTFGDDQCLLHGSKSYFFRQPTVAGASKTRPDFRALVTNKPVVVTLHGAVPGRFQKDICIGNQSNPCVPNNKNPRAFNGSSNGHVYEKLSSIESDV
Assay: not given
Particulars: rodents; cited from earlier work.
In the case of `C[C@@H]([C@@H](O)c1ccc(O)cc1)N1CCC(O)(c2ccccc2)CC1` [CP-101, 606], the “number of occurrence and depth of cortical spreading depression” value was “suppress the number of occurrence and the depth of cortical spreading depression”. On to `C[C@@H](CN1CCC(Cc2ccccc2)CC1)[C@@H](O)c1ccc(O)cc1` [Ro25-6981], for which the “number of occurrence and depth of cortical spreading depression” value was “suppress the number of occurrence and the depth of cortical spreading depression”.

For a further experiment, the system named is NMDA receptor.
Assay: not given
Particulars: in vivo; cited from earlier work.
As to `CC12CC3CC(C)(C1)CC(N)(C3)C2` [memantine], the “peripheral symptoms of dementia” value is reported as “partially improves peripheral symptoms of dementia”.

For the next experiment, the system named is NMDA receptor.
Assay: not given
Particulars: continuous intravenous administration; cited from earlier work.
As for `CNC1(c2ccccc2Cl)CCCCC1=O` (stereo not drawn) [ketamine], the “depression symptom accompanying major depression and bipolar disorder” value was “improves depression symptom accompanying major depression and bipolar disorder rapidly and in a sustained manner”.

Another experiment concerns the target T2, NMDA receptor containing the NR2B subunit.
Assay: not given
Particulars: continuous intravenous administration; cited from earlier work.
Consider `C[C@@H]([C@@H](O)c1ccc(O)cc1)N1CCC(O)(c2ccccc2)CC1` [CP-101, 606], for which the treatment resistant-depression symptom entry is listed as “significantly improves treatment resistant-depression symptom”.
